Source: patent US4087432A, “1H-imidazo(4,5-b)pyridine compounds” (Eli Lilly and Company, priority 1975, dated 1978)

Legend:
[1] = test system: Crabgrass; assay: Preemergent injury rating, crabgrass; format: in vivo, large crabgrass; design: key: injury rating scale on which 4 = death
Method: (§1) Various of the compounds to be employed as active agent in accordance with the present invention were evaluated for preemergent application to various species of plants. In this evaluation, a soil was prepared consisting of one part masonry sand and one part shredded top soil blended together in a cement mixer. One gallon of this soil was placed in a 25 × 35 cm. galvanized flat and was patted down with a bench brush until level. A three-row marker was used to make 21/2 cm. deep furrows in approximately two-fifths of the flat. Crop seeds consisting of four kernels of corn, five cotton seeds and five soybean seeds were placed in these furrows. A four-row template was then placed on the remaining soil and the indicated approximate numbers of each of the following seeds were planted, one species to each section: foxtail (millet), 80-100 seeds; velvetleaf (40-50 seeds); rough pigweed (150-250 seeds); and large crabgrass (100-150 seeds).
(§2) Sufficient soil was added to cover the entire flat. Thus, the weed seeds were covered to a depth of about 6 mm. and the crop seeds were covered to a depth of about 3 cm.
(§3) In assaying the effect of the composition as preemergent herbicides, a flat prepared as above, taken either on the day of planting or on the next day, was placed in a chamber equipped with a turntable and an air exhaust. The herbicidal composition, either a spray-type emulsion or a wettable powder, was applied to the flat with a modified DeVilbiss atomizer hooked to an air source. Twelve and one-half milliliters of the composition under test were applied to each flat either on the day of planting or the succeeding day. Injury ratings and observations as to type of injury were made eleven to twelve days after treatment. The injury rating scale used was as follows:
(§4) 4--death When more than one determination was carried out at a given rate, an average value was calculated for the injury rating. Each compound evaluated was formulated as a spray by one of the following procedures. In one method the particular compound was wetted by grinding in a mortar with one part of polyoxyethylene sorbitan monolaurate. Five hundred parts of water were added slowly to the resultant creamy paste to give an aqueous dispersion with a surfactant concentration of 0.2 percent. This dispersion was entirely satisfactory for spray application. In a second procedure the compound was dissolved in one volume of acetone, and the acetone solution was diluted with nineteen volumes of water containing 0.1 percent of polyoxyethylene sorbitan monolaurate.
(§5) In the following table setting forth the results of the evaluation, column 1 gives the name of the compound under test; column 2, the rate in pounds per acre at which the compound was applied to the test flat; and the remaining columns, the injury to the particular plant seeds or seedlings as measured by the foregoing scale.

[2] = test system: Velvet Leaf; assay: Postemergent injury rating, velvetleaf; format: in vivo
Method: as §1, §2, §3, §4
(§6) Representative compounds of the present invention were evaluated for postemergent application to plants including corn and several weed species. The evaluation was carried out in accordance with the procedures of Examples 49-52 except that the test solutions were applied about 9-12 days after the preparation and seeding of the flats.

[3] = test system: Corn; assay: Preemergent injury rating, corn; format: in vivo; design: key: injury rating scale on which 4 = death
Method: as §1, §2, §3, §4, §5

[4] = test system: Crabgrass; assay: Postemergent injury rating, crabgrass; format: in vivo, large crabgrass; design: key: injury rating scale, 4 = death
Method: as §1, §2, §3, §4, §6

[5] = test system: Foxtail; assay: Preemergent injury rating, foxtail; format: in vivo, foxtail (millet); design: key: injury rating scale on which 4 = death
Method: as §1, §2, §3, §4, §5

[6] = test system: Corn; assay: Postemergent injury rating, corn; format: in vivo; design: key: injury rating scale, 4 = death
Method: as §1, §2, §3, §4, §6

[7] = test system: Cotton; assay: Preemergent injury rating, cotton; format: in vivo; design: key: injury rating scale on which 4 = death
Method: as §1, §2, §3, §4, §5

[8] = test system: Soybean; assay: Postemergent injury rating, soybean; format: in vivo
Method: as §1, §2, §3, §4, §6

[9] = test system: Foxtail; assay: Postemergent injury rating, foxtail; format: in vivo, foxtail (millet); design: key: injury rating scale, 4 = death
Method: as §1, §2, §3, §4, §6

[10] = test system: Soybean; assay: Preemergent injury rating, soybean; format: in vivo; design: key: injury rating scale on which 4 = death
Method: as §1, §2, §3, §4, §5

[11] = test system: Pigweed; assay: Postemergent injury rating, pigweed; format: in vivo, rough pigweed; design: key: injury rating scale, 4 = death
Method: as §1, §2, §3, §4, §6

[12] = test system: Cotton; assay: Postemergent injury rating, cotton; format: in vivo
Method: as §1, §2, §3, §4, §6

[13] = test system: Velvet Leaf; assay: Preemergent injury rating, velvetleaf; format: in vivo; design: key: injury rating scale on which 4 = death; conditions: 2 lbs/acre
Method: as §1, §2, §3, §4, §5

[14] = test system: Pigweed; assay: Preemergent injury rating, pigweed; format: in vivo, rough pigweed; design: key: injury rating scale on which 4 = death; conditions: 2 lbs/acre
Method: as §1, §2, §3, §4, §5

| Compound | Injury Rating, Velvet Leaf ([2]; 8 lbs/acre) | Injury Rating, Crabgrass ([4]; 1 lbs/acre) | Injury Rating, Crabgrass ([4]; 2 lbs/acre) | Injury Rating, Crabgrass ([4]; 8 lbs/acre) | Injury Rating, Corn ([6]; 1 lbs/acre) | Injury Rating, Corn ([6]; 2 lbs/acre) | Injury Rating, Corn ([6]; 8 lbs/acre) | Injury Rating, Soybean ([8]; 1 lbs/acre) | Injury Rating, Soybean ([8]; 2 lbs/acre) | Injury Rating, Foxtail ([9]; 1 lbs/acre) | Injury Rating, Foxtail ([9]; 2 lbs/acre) | Injury Rating, Foxtail ([9]; 8 lbs/acre) | Injury Rating, Pigweed ([11]; 1 lbs/acre) | Injury Rating, Pigweed ([11]; 2 lbs/acre) | Injury Rating, Pigweed ([11]; 8 lbs/acre) | Injury Rating, Cotton ([12]; 1 lbs/acre) | Injury Rating, Cotton ([12]; 2 lbs/acre) | other results |
| --- | --- | --- | --- | --- | --- | --- | --- | --- | --- | --- | --- | --- | --- | --- | --- | --- | --- | --- |
| On1c(C(F)(F)F)nc2ncc(C(F)(F)F)cc21 [1-hydroxy-2,6-bis(trifluoromethyl)-1H-imidazo(4,5-b)pyridine] | 4 | 4 | 4 | 4 | 1 | 4 | 4 | 4 | 4 | 4 | 4 | 4 | 4 | 4 | 4 | 4 | 4 | Injury Rating, Crabgrass ([1]; 8 lbs/acre): 4; Injury Rating, Velvet Leaf ([2]; 1 lbs/acre): 4; Injury Rating, Velvet Leaf ([2]; 2 lbs/acre): 4; Injury Rating, Velvet Leaf ([2]; 4 lbs/acre): 4; Injury Rating, Corn ([3]; 8 lbs/acre): 3; Injury Rating, Crabgrass ([4]; 4 lbs/acre): 4; Injury Rating, Foxtail ([5]; 8 lbs/acre): 4; Injury Rating, Corn ([6]; 4 lbs/acre): 4; Injury Rating, Cotton ([7]; 8 lbs/acre): 4; Injury Rating, Soybean ([8]; 4 lbs/acre): 4; Injury Rating, Soybean ([8]; 8 lbs/acre): 4; Injury Rating, Foxtail ([9]; 4 lbs/acre): 4; Injury Rating, Soybean ([10]; 8 lbs/acre): 3; Injury Rating, Pigweed ([11]; 4 lbs/acre): 4; Injury Rating, Cotton ([12]; 4 lbs/acre): 4; Injury Rating, Cotton ([12]; 8 lbs/acre): 4 |
| Nc1c(Br)nc2nc(C(F)(F)F)n(O)c2c1Br [5,7-dibromo-6-amino-1-hydroxy-2-(trifluoromethyl)-1H-imidazo(4,5-b)pyridine] | 2 |  |  | 3 |  |  | 1 |  |  |  |  | 3 |  |  | 3 |  |  |  |
| CS(=O)(=O)c1cnc2nc(C(F)(F)F)n(O)c2c1 [6-(methylsulfonyl)-1-hydroxy-2-(trifluoromethyl)-1H-imidazo(4,5-b)pyridine] |  | 2 | 2 |  | 1 | 2 |  | 3 | 4 | 4 | 4 |  | 3 | 4 |  | 3 | 4 | Injury Rating, Crabgrass ([1]; 2 lbs/acre): 2; Injury Rating, Velvet Leaf [13]: 2; Injury Rating, Corn ([3]; 2 lbs/acre): 0; Injury Rating, Foxtail ([5]; 2 lbs/acre): 2; Injury Rating, Pigweed [14]: 3; Injury Rating, Cotton ([7]; 2 lbs/acre): 0; Injury Rating, Soybean ([10]; 2 lbs/acre): 2 |
